# Data as given in patent US12527849B2, “Apparatus for determining administration form of a composition of an engineered virus-based nanoparticle for a treatment of an autoimmune condition” (Diamante Srl, priority 2021, dated 2026).
# Assays:
# Format in all cases: in vivo
# TGF-β1 = assay: Cytokine ELISA in CIA mice, day 60: TGF-β1; conditions: serum pooled from five CIA mice
# Source text: With continued reference to FIG. 1, in some embodiments, administration 116 may be done to an animal. As a non-limiting example, the animal may include a mouse, a fish, a rabbit, human, and the like. As a non-limiting example, administration 116 of composition of the engineered virus-based nanoparticle for a treatment of an autoimmune condition may be done to dilute, brown, and non-agouti (DBA) mice based on their susceptibility to collagen-induced arthritis (CIA). Female DBA/1 mice 6 to 8 weeks of age may be maintained under specific pathogen-free conditions. CIA may be induced by the intradermal tail base injection of 100 μg of chicken type II collagen (Sigma-Aldrich) as previously described. Five mice per group may be immunized on days 0 and 21 to induce arthritis. The onset of disease may be confirmed on the day that swelling or erythema may be observed in any paw, typically 4 to 10 days after the second immunization. Each experimental group may be treated seven times, 5 days apart, starting from day 28 after the first immunization, with intraperitoneal injections of saline (200 μI per mouse), TBSV·pLIp1, TBSV·pFADK2, pLIp1+IFA, and pFADK2+IFA (all 50 μg per mouse in 200 μl) or dexamethasone (5 μg per mouse in 200 μl). […] CIA may be assessed using a macroscopic score system based on the visual identification of arthritic limbs.
# MCP-1 = assay: Pro-inflammatory cytokines in sera of CIA Collagen mice (ELISA, day 58): MCP-1; conditions: Dexamethasone oral 1 mg/kg, 20 times between day 28 and 57
# Description: (§1) Critical administration 124 disclosed herein is further described below. Q5D represents administration 5 days a part. TBSV·pLIp1 and wt TBSV shown in Table 1 may include liquid form that are not sterile and stored in −20° C. TBSV·pLIp1 may be given at the dose of 50 μG/100 μL Male DBA/1J mice (8 weeks; Envigo, Italy) may be used for these studies. Mice may be housed in individual cages (two for each group) and maintained under a 12:12 light-dark cycle at 21° C.±1° C. and 50%±5% humidity. The animals may be acclimated to their environment for 1 week and had ad libitum access to tap water and standard rodent diet. All animal experiments may be complied with regulations in Italy (D.M. 116192), Europe (O.J of E.C. L 358/112/18/1986), and the United States (Animal Welfare Assurance Number A5594-01, Department of Health and Human Services, USA). […] Arthritis was assessed by using qualitative severity score system and hind paw volume (mL) measured by a plethysmometer on day 20, 22, 24, 26, 28, 30, 32, 34, 36, 38, 40, 42, 44, 46 48, 50, 52, 54, 56 and 58. Body weight was recorded on day 0, 6, 13, 16, 18, 20, 22, 24, 26, 28, 30, 32, 34, 36, 38, 40, 42, 44, 46, 50, 52, 54, 56 and 58. […]
# IL-6 = assay: Pro-inflammatory cytokines in sera of CIA Collagen mice (ELISA, day 58): IL-6; conditions: Dexamethasone oral 1 mg/kg, 20 times between day 28 and 57
# Description: as §1
smiles,measurement,setting,value
"C[C@@H]1C[C@H]2[C@@H]3CCC4=CC(=O)C=C[C@]4(C)[C@@]3(F)[C@@H](O)C[C@]2(C)[C@@]1(O)C(=O)CO [Dexamethasone, dexamethasone]",TGF-β1,TGF-β1,10385.0 pg/mL
same,"MCP-1, % of reduction vs CIA Collagen",MCP-1,30.57%
same,"IL-6, % of reduction vs CIA Collagen",IL-6,40.13%
